Results from patent US8124635B2, “Antimicrobial composition useful for preserving wood” (Rohm and Haas Company, priority 2006, dated 2012).
Like-named read-outs stand apart in the source and are kept apart here.

What was measured:
Type in all cases: cell-based
[1] = test system: Pseudomonas aeruginosa (Ps. aeruginosa—ATCC # 9027); assay: Microtiter plate MIC / synergy test (Kull synergy index), M9GY medium, 30° C.; details: for MIC: Pseudomonas aeruginosa, read-out: MIC of the component acting alone (end point); for Ca = Component A (propiconazole), end-point concentration (MIC), alone or in mixture: Component B OIT; for Cb = Component B (OIT), end-point concentration (MIC), alone or in mixture: Component A propiconazole
Excerpt: (§1) One measure of synergism is the industrially accepted method described by Kull, F. C.; Eisman, P. C.; Sylwestrowicz, H. D. and Mayer, R. L., in Applied Microbiology 9:538-541 (1961), using the ratio determined by the formula: Ca/CA+Cb/CB=Synergy Index (“SI”) wherein: • CA=concentration of compound A (first component) in ppm, acting alone, which produced an end point (MIC of Compound A). • Ca=concentration of compound A in ppm, in the mixture, which produced an end point. • CB=concentration of compound B (second component) in ppm, acting alone, which produced an end point (MIC of Compound B). • Cb=concentration of compound B in ppm, in the mixture, which produced an end point.
(§2) When the sum of Ca/CA and Cb/CB is greater than one, antagonism is indicated. […] The lower the SI, the greater the synergy shown by that particular mixture. The minimum inhibitory concentration (MIC) of an antimicrobial compound is the lowest concentration tested under a specific set of conditions that prevents the growth of added microorganisms.
(§3) Synergy tests were conducted using standard microtiter plate assays with media designed for optimal growth of the test microorganism. Minimal salt medium supplemented with 0.2% glucose and 0.1% yeast extract (M9GY medium) was used for bacteria testing; Potato Dextrose Broth (PDB medium) was used for yeast and mold testing. In this method, a wide range of combinations of microbicides was tested by conducting high resolution MIC assays in the presence of various concentrations of biocides. High resolution MICs were determined by adding varying amounts of microbicide to one column of a microtitre plate and doing subsequent ten-fold dilutions using an automated liquid handling system to obtain a series of end points ranging of active ingredient. The synergy of the combinations of the present invention was determined against two bacteria, Pseudomonas aeruginosa (Ps. aeruginosa—ATCC # 9027) and Staphylococcus aureus (S. aureus—ATCC # 6538), a yeast, Candida albicans (C. albicans—ATCC # 10231), and a mold, Aspergillus niger (A. niger—ATCC 16404). The bacteria were used at a concentration of about 1-6×10^6 bacteria per mL and the yeast and mold at 1−5×10^5 fungi per mL. These microorganisms are representative of natural contaminants in many consumer and industrial applications. […] (yeast and mold) or 30° C. (bacteria).

[2] = test system: Staphylococcus aureus (S. aureus—ATCC # 6538); assay: as above; design: Ca = Component A (tebuconazole), end-point concentration (MIC), alone or in mixture / Ca = Component A (propiconazole), end-point concentration (MIC), alone or in mixture: unit: ppm; details: for MIC: Staphylococcus aureus, read-out: MIC of the component acting alone (end point); for Cb = Component B (OIT), end-point concentration (MIC), alone or in mixture: Component A propiconazole
Excerpt: as §1, §2, §3

[3] = test system: Aspergillus niger (A. niger—ATCC 16404); assay: Microtiter plate MIC / synergy test (Kull synergy index), PDB medium, 25° C.; details: for MIC: Aspergillus niger, read-out: MIC of the component acting alone (end point)
Excerpt: as §1, §2, §3

[4] = test system: Candida albicans (C. albicans—ATCC # 10231); assay: as above; design: Ca = Component A (tebuconazole), end-point concentration (MIC), alone or in mixture / Ca = Component A (propiconazole), end-point concentration (MIC), alone or in mixture: unit: ppm; details: for MIC: Candida albicans, read-out: MIC of the component acting alone (end point); for MIC / MIC of the component acting alone (end point): C. albicans; for Cb = Component B (OIT), end-point concentration (MIC), alone or in mixture: Component A propiconazole
Excerpt: as §1, §2, §3

[5] = test system: Gloeophyllum trabeum (G. trabeum—ATCC # 11593); assay: Application test: treated paper disc on Malt agar plate, fungal growth observed visually after 4 weeks; details: G. trabeum ATCC # 11539, contact time 4 weeks
Protocol: (§4) An application test was performed to evaluate synergy of DCOIT/thifluzamide alone and in combination against Gloeophyllum trabeum (G. trabeum—ATCC # 11593) and Trametes vesicolor (T. vesicolor—ATCC # 4262). A paper disc was dipped in the treatment solution, air dried and placed on Malt agar plate streaked with the test organisms. The surface of the disc was also swabbed with the test organisms. The agar plates were incubated at 25° C. for 4 weeks. Fungal growth was then observed visually.

[6] = test system: Trametes vesicolor (T. vesicolor—ATCC # 4262); assay: as above; details: T. vesicolor ATCC # 42462, contact time 4 weeks
Protocol: as §4

[7] = Ps. Aeruginosa ATCC # 9027, contact time 24 hour
[8] = Ps. Aeruginosa ATCC # 9027, contact time 48 hour
[9] = S. aureus, contact time 24 hour, Component B CMIT/MIT
[10] = S. aureus, contact time 24 hour, Component B copper 8-hydroxyquinoline
[11] = S. aureus, contact time 48 hour, Component B copper 8-hydroxyquinoline
[12] = ATCC6538, 24 h, S. aureus, contact time 24 hour
[13] = A. niger ATCC # 16404, contact time 3 days, Component B copper 8-hydroxyquinoline
[14] = A. niger ATCC # 16404, contact time 7 days, Component B copper 8-hydroxyquinoline
[15] = ATCC16404, 72 h, A. niger, contact time 3 days
[16] = ATCC16404, 168 h, A. niger, contact time 7 days
[17] = C. albicans ATCC # 10231, contact time 24 hour, Component B CMIT/MIT
[18] = C. albicans ATCC # 10231, contact time 24 hour, Component B copper 8-hydroxyquinoline
[19] = C. albicans ATCC # 10231, contact time 48 hour, Component B copper 8-hydroxyquinoline
[20] = ATCC9027, 24 h, Ps. aeruginosa, contact time 24 hour
[21] = ATCC9027, 48 h, Ps. aeruginosa, contact time 48 hour
[22] = ATCC6538, 48 h, S. aureus, contact time 48 hour
[23] = ATCC10231, 24 h, contact time 24 hour
[24] = Ps. aeruginosa, contact time 24 hour
[25] = S. aureus, contact time 24 hour
[26] = S. aureus, contact time 48 hour

`Cn1sccc1=O` [MI, 2-methyl-4-isothiazolin-3-one] showed an MIC ([1]; ATCC9027, 24 h) of 20 mg/L, an MIC ([1]; ATCC9027, 48 h) of 20 mg/L and an MIC ([2]; ATCC6538, 24 h) of 30 mg/L. It also gave an MIC ([2]; ATCC6538, 48 h) of 40 mg/L, an MIC ([3]; ATCC16404, 72 h) of 450 mg/L and an MIC ([3]; ATCC16404, 168 h) of 450 mg/L.
`CCCC1COC(Cn2cncn2)(c2ccc(Cl)cc2Cl)O1` (stereo not shown) [propiconazole] was tested, and the “Ca = Component A (propiconazole), end-point concentration (MIC), alone or in mixture” value (“Ca = Component A (propiconazole)” below) [1, 7] was 800, the “Ca = Component A (propiconazole)” value [1, 8] was 800 and the “Ca = Component A (propiconazole)” value [2, 9] was 100. For the same compound, the “Ca = Component A (propiconazole)” value ([2]; S. aureus, contact time 24 hour, Component B OIT) was 100, the “Ca = Component A (propiconazole)” value [2, 10] was 100 and the “Ca = Component A (propiconazole)” value ([2]; S. aureus, contact time 48 hour, Component B OIT) was 100. For the same compound, the “Ca = Component A (propiconazole)” value [2, 11] was 100, the MIC [2, 12] was 100 mg/L and the “Ca = Component A (propiconazole)” value ([3]; A. niger ATCC # 16404, contact time 3 days, Component B CMIT/MIT) was 20. The “Ca = Component A (propiconazole)” value [3, 13] was 20, the “Ca = Component A (propiconazole)” value [3, 14] was 25 and the MIC [3, 15] was 20 mg/L. The MIC [3, 16] was 20 mg/L, the “Ca = Component A (propiconazole)” value [4, 17] was 50 and the “Ca = Component A (propiconazole)” value ([4]; C. albicans ATCC # 10231, contact time 24 hour, Component B OIT) was 50. For the same compound, the “Ca = Component A (propiconazole)” value [4, 18] was 50, the “Ca = Component A (propiconazole)” value ([4]; C. albicans ATCC # 10231, contact time 48 hour, Component B OIT) was 50 and the “Ca = Component A (propiconazole)” value [4, 19] was 50.
`CCCCCCCCn1sc(Cl)c(Cl)c1=O` [DCOIT, 4,5-dichloro-2-n-octyl-4-isothiazolin-3-one] was tested, and the MIC [1, 20] was 3.2 mg/L, the MIC [1, 21] was 5.3 mg/L and the MIC [2, 12] was 0.1 mg/L. For the same compound, the MIC [2, 22] was 0.4 mg/L, the “Ca = Component A (DCOIT), end-point concentration, alone or in mixture” value ([5]; Component B thifluzamide) was 320 and the “Ca = Component A (DCOIT), end-point concentration, alone or in mixture” value ([6]; Component B thifluzamide) was 320.
With `CC(C)(C)C(O)(CCc1ccc(Cl)cc1)Cn1cncn1` (stereo not shown) [tebuconazole] the “Ca = Component A (tebuconazole), end-point concentration (MIC), alone or in mixture” value (“Ca = Component A (tebuconazole)” below) ([1]; Ps. Aeruginosa ATCC # 9027, contact time 24 hour, Component B copper 8-hydroxyquinoline) was 900, the MIC [1, 20] was 900 mg/L and the MIC [1, 21] was 900 mg/L. For the same compound, the “Ca = Component A (tebuconazole)” value [2, 9] was 50, the “Ca = Component A (tebuconazole)” value [2, 10] was 50 and the “Ca = Component A (tebuconazole)” value ([2]; S. aureus, contact time 48 hour, Component B CMIT/MIT) was 50. For the same compound, the “Ca = Component A (tebuconazole)” value [2, 11] was 50, the MIC [2, 12] was 50 mg/L and the MIC [2, 22] was 50 mg/L. For the same compound, the “Ca = Component A (tebuconazole)” value [3, 13] was 8, the “Ca = Component A (tebuconazole)” value [3, 14] was 8 and the MIC [3, 15] was 8 mg/L. For the same compound, the MIC [3, 16] was 8 mg/L, the “Ca = Component A (tebuconazole)” value [4, 17] was 50 and the “Ca = Component A (tebuconazole)” value [4, 18] was 60. The “Ca = Component A (tebuconazole)” value ([4]; C. albicans ATCC # 10231, contact time 48 hour, Component B CMIT/MIT) was 50, the “Ca = Component A (tebuconazole)” value [4, 19] was 60 and the MIC [4, 23] was 50 mg/L.
`CCCCCCCCn1sccc1=O` [OIT, 2-n-octyl-4-isothiazolin-3-one] was tested, and the “Cb = Component B (OIT), end-point concentration (MIC), alone or in mixture” value (shortened to “Cb = Component B (OIT)”) [1, 7] was 390, the “Cb = Component B (OIT)” value [1, 8] was 525 and the “MIC of the component acting alone (end point)” value (“MIC … (end point)” for short) [1, 24] was 390 ppm. For the same compound, the MIC [1, 20] was 390 mg/L, the MIC [1, 21] was 415 mg/L and the “Cb = Component B (OIT)” value [2, 25] was 63. The “Cb = Component B (OIT)” value [2, 26] was 78, the MIC [2, 12] was 63 mg/L and the MIC [2, 22] was 78 mg/L. The MIC [3, 15] was 3.3 mg/L, the MIC [3, 16] was 3.3 mg/L and the “Cb = Component B (OIT)” value ([4]; C. albicans ATCC # 10231, contact time 24 hour) was 1.3. For the same compound, the “Cb = Component B (OIT)” value ([4]; C. albicans ATCC # 10231, contact time 48 hour) was 1.3, the “MIC … (end point)” value ([4]; contact time 24 hour) was 0.9 ppm and the MIC [4, 23] was 0.6 mg/L. The MIC ([4]; ATCC10231, 48 h, contact time 48 hour) was 0.9 mg/L.
For `Cc1nc(C(F)(F)F)c(C(=O)Nc2c(Br)cc(OC(F)(F)F)cc2Br)s1` [thifluzamide], the “Cb = Component B (thifluzamide), end-point concentration, alone or in mixture” value ([5]; Component A DCOIT) was over 960 and the “Cb = Component B (thifluzamide), end-point concentration, alone or in mixture” value ([6]; Component A DCOIT) was 320.
`CCCCNC(=O)OCC#CI` [IPBC, 3-iodo-2-propynyl-butylcarbamate] was tested, and the “MIC … (end point)” value [1, 24] was 263 ppm, the “MIC … (end point)” value ([1]; Ps. aeruginosa, contact time 48 hour) was 263 ppm and the “MIC … (end point)” value [2, 25] was 34 ppm. The “MIC … (end point)” value [2, 26] was 42 ppm, the “MIC … (end point)” value ([3]; A. niger, contact time 3 days) was 0.4 ppm and the “MIC … (end point)” value ([4]; contact time 24 hour) was 4.2 ppm. The “MIC … (end point)” value ([4]; contact time 48 hour) was 4.2 ppm.
